From patent US20030096760A1, “Method of antagonizing the human SRC SH2 domain” (SmithKlineBeecham Corporation, priority 1997, published 2003) come the findings set out here.

*1 amine or outer side, *2 acyl side, *3 side chain or, on linkers, in order; H or OH if unused. Where a SMILES comes first, the peptide text is derived from it. [ ]: non-standard residue; d: D form. X1 = O=C1OC(O)c2cc(C[C@H](N[*:1])C(=O)[*:2])ccc21

The test has as its target T1, human src SH2 domain (Homo sapiens, UniProt P12931).
T1 construct: made in house; host or cells: E. coli strain AR120 (vector pEA1KnRBS3)
The experiment in a line: ELISA-based binding assay of human src SH2 domain fusion protein and biotinylated pY peptide. Particulars: DET1-DET2-spacer-ek-src SH2 fusion protein; 0.1 uM biotinylated pY peptide; 3 hr at 4° C.; read-out: Activity at cloned human Src SH2 domain (IC50). Here is the method:
The inhibitory activity of compounds at the human src SH2 domain was determined in vitro using the human src SH2 domain expressed as fusion proteins in E. coli.
The fusion protein containing the human SH2 domain was expressed as the general sequence: DET1-DET2-spacer-ek-SH2, where DET1, DET2, spacer, ek and SH2 are as described below. DET1 (“defined epitope tag 1”) (SEQ ID NO: 1) is an 11 amino acid sequence found in the Human Immunodeficiency Virus Type 1 (HIV-1) envelope protein gp120 (or gp160). Monoclonal antibodies to various epitopes of HIV-1 gp120 (or gp160) are known in the art, see, for example U.S. Pat. No. 5,166,050. One preferred example is monoclonal antibody 178.1 (see, e.g., Thiriart et al., J. Immunol., 143:1832-1836 (1989)), which was prepared by immunization of mice with a yeast-expressed HIV-1 gp160 molecule from strain BH10 (Ratner et al., Nature, 313:277-284 (1985)). This tag was used for detection of expression (by Western blot), for purification of the protein (by affinity chromatography), and for configuring assays in which the fusion protein was captured or immobilized using the 178.1 antibody. DET2 is a hexa-histidine sequence tag (SEQ ID NO: 2) which binds to nickel-containing resins and was used for purification purposes. Spacer (SEQ ID NO: 3) was utilized to design a BamH1 restriction site at the indicated position of the construct. […]

T1 sequence (P12931 151-248 limits assumed): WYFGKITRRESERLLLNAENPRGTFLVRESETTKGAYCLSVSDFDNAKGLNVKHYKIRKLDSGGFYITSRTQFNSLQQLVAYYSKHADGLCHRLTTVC

For `CC[C@H](C)[C@H](NC(=O)[C@H](CCC(=O)O)NC(=O)[C@H](CCC(=O)O)NC(=O)[C@H](Cc1ccc2c(c1)C(O)OC2=O)NC(C)=O)C(=O)N[C@@H](CCC(=O)O)C(N)=O` (stereo partly drawn) [Compound 1, (S)-alpha-(acetylamino)-1,3-dihydro-3-hydroxy-1-oxo-5-isobenzofuranpropanamido-glutamate-glutamate-isoleucine-glutamate-amine] (Ac-[X1]EEIE-NH2), the IC50 was determined as 250 nM.
